Source: US20110086884A1, “BARIUM SALT OF BENZIMIDAZOLE DERIVATIVE” (priority 2003, published 2011)

Test: hygroscopicity of the solid salt
Assay type: physicochemical
Details: both crystalline and amorphous forms

## COc1ccc2[nH]c([S@@+]([O-])Cc3ncc(C)c(OC)c3C)nc2c1 [(S)-omeprazole barium, (S)-5-methoxy-2-[[(4-methoxy-3,5-dimethyl-2-pyridinyl)-methyl]sulfinyl]-1H-benzimidazole]
  hygroscopicity: non-hygroscopic
